# Reference: US20070184490A1, “Neuronal nicotinic receptor ligands and their use” (priority 2006, published 2007)
# What was measured:
# [1] = pilot study: tolerability and safety; assay type: in vivo, human; details: for Adverse event Headache, subjects reporting / Adverse event Increased appetite, subjects reporting / Adverse event Nervousness, subjects reporting / Adverse event Pain, subjects reporting / Adverse event Somnolence, subjects reporting: N=11
# Method: Safety was evaluated by spontaneous report of adverse events; in addition, laboratory data (hematology, chemistry, urinalysis), vital signs, and electrocardiograms ([…]) were completed at baseline and at the end of each treatment period.
# adults with ADHD = experiment: pilot study: computerized cognitive assessment battery; assay type: in vivo, human
# Method: Raters for the CAARS were trained and certified prior to the start of the study. Investigator-administered CAARS, CGI-ADHD-S, Hamilton Anxiety Scale (HAM-A) (Hamilton 1959), and Hamilton Depression Scale (HAM-D) (Hamilton 1960) were administered to subjects at baseline and at the completion of each treatment period (Days 14, 28, 42, and 56). CMRS, HAM-A, and HAM-D ratings were based on the previous seven days. After being trained, subjects completed a computerized cognitive assessment battery (Simpson et al 1989), which was amended to include the Conner's Continuous Performance Test (Conners 1995) and the Stroop Color Word Test (Jensen and Rohwer 1966), at baseline and at the completion of each treatment period. Attentional tasks (simple and choice reaction time, digit vigilance), selective attention (Conner's CPT), working memory tasks (numeric and spatial working memory, rapid visual information processing), episodic secondary memory (immediate and delayed word recall, word and picture recognition), motor control tasks (tracking), and executive function (the Stroop effect) were among the items assessed.
# The primary efficacy endpoint was the CAARS total ADHD symptom score (sum of Inattention and Hyperactivity/Impulsivity scores) obtained on the last day of each treatment period. Treatment differences were assessed using an analysis of variance (ANOV A) model with fixed terms fitted for treatment, period, and sequence and a random effect for subjects-within-sequence. […] There were no corrections for multiple comparisons in this proof-of-concept study. Statistical tests of efficacy were one-sided; p-values ≦0.050 were considered statistically significant, and those between […] indicated a statistical trend.
# [2] = pilot study: population PK plasma concentrations at steady state; assay type: in vivo, human
# Method: Blood samples for pharmacokinetic analysis were taken at 0, 1, 2, 4, and 8 hours on Day 1 and at approximately 2 hours post-dose on the last day of each dosing period. The blood samples were immediately stored at 4° C. or below. The blood samples were centrifuged within one hour of collection using a refrigerated centrifuge to separate the plasma. The plasma samples were transferred using plastic pipettes into plastic vials. The plasma samples were frozen at −20° C. within one hour from centrifugation and remained frozen until shipped to Abbott Laboratories for analysis.
# Due to limited pharmacokinetic sampling timepoints, trough and average concentrations were estimated using a non-linear mixed-effect pharmacokinetic modeling approach with NONMEM software Version V).
# [3] = animal models; U-shaped dose-response; cited from earlier work
# [4] = tested on: α4β2, α3β4, or α3β2 NNR subtypes; experiment: ion channel flux in cells expressing NNR subtypes; assay type: cell-based
# Description: One method for assessing ion channel flux is via activation of ion flux into a cell expressed with recombinant α4β2, α3β4, or α3β2 NNR subtypes. Alternatively, a native cell line that expresses NNRs also can be suitable. The method can be accomplished under any suitable binding conditions. Examples of suitable binding conditions for [^3H]-cytisine binding have been described in the art, for example in at least U.S. Pat. Nos. 6,403,575 and 6,133,253, the procedures of which are herein incorporated by reference in their entirety. Data obtained from such ion channel flux assays can be evaluated to determine percent maximal nicotinic response (%), which directly correlates to percent maximal agonist efficacy.
# Cells of IMR-32 human neuroblastoma clonal cell line (ATCC, Rockville, Md., USA) were maintained in a log phase of growth according to established procedures. Experimental cells were seeded at a density of 500,000 cells/mL into a 24-well tissue culture dish. Plated cells were allowed to proliferate for at least 48 hours before loading with 2 μCi/mL of ^86Rb^+ (35 Ci/mmol) overnight at 37° C. The ^86Rb^+ efflux assays were performed according to previously published protocols (Lukas, R. J., J. Pharmacol. Exp. Ther., 265, 294-302, 1993) except serum-free Dulbecco's Modified Eagle's medium was used during the ^86Rb^+ loading, rinsing, and agonist-induced efflux steps. […]
# human α4 β2 NNRs = human α4 β2 NNRs (Homo sapiens, UniProt P17787+P43681); experiment: binding to human α4β2 NNRs in vitro
# Sequence of human α4 β2 NNRs (P43681 29-627 limits assumed): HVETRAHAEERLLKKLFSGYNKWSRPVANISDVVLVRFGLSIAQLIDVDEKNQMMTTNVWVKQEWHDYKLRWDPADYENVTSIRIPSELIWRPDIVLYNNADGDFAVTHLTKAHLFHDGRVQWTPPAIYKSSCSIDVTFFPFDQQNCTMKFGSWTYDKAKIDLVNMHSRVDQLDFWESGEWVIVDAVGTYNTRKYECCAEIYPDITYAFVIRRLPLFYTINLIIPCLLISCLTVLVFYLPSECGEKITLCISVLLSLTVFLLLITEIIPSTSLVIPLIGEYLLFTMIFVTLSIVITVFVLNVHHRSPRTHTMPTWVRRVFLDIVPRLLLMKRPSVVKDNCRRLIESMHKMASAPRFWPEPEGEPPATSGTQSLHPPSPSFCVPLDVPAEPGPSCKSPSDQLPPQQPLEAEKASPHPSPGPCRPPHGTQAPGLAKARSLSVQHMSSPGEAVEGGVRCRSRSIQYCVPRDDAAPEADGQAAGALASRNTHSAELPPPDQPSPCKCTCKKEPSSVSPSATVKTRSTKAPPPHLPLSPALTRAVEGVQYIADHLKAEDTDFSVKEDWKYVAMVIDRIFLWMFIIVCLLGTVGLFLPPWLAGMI
# Sequence of human α4 β2 NNRs (P17787 26-502): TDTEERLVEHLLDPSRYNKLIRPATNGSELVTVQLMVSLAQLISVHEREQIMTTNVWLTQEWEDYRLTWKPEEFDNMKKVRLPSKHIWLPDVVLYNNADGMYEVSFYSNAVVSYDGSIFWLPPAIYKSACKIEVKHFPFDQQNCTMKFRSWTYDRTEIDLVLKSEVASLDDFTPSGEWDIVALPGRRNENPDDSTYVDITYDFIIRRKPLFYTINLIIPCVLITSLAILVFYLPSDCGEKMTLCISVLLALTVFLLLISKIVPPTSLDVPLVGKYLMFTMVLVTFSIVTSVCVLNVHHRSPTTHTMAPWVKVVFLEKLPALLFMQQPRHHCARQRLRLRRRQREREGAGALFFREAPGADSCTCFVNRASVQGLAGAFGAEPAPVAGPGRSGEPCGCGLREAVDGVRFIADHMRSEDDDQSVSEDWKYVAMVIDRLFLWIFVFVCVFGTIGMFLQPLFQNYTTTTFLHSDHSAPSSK
smiles,measurement,setting,value
"Cc1ncccc1OC[C@@H]1CCCN1 [ABT-089, 2-methyl-3-(2-(S)-pyrrolidinylmethoxy)pyridine]","Adverse event Headache, subjects reporting",[1]; 2 mg bid,3
same,"Adverse event Increased appetite, subjects reporting",[1]; 2 mg bid,0
same,"Adverse event Nervousness, subjects reporting",[1]; 2 mg bid,1
same,"Adverse event Pain, subjects reporting",[1]; 2 mg bid,0
same,"Adverse event Somnolence, subjects reporting",[1]; 2 mg bid,0
same,serious adverse events,[1]; 2 mg to 20 mg twice daily,no serious adverse events
same,tolerability,"[1]; 2 mg to 20 mg twice daily, 11 adult ADHD subjects",well tolerated
same,"Adverse event Headache, subjects reporting",[1]; 4 mg bid,0
same,"Adverse event Increased appetite, subjects reporting",[1]; 4 mg bid,0
same,"Adverse event Nervousness, subjects reporting",[1]; 4 mg bid,0
same,"Adverse event Pain, subjects reporting",[1]; 4 mg bid,0
same,"Adverse event Somnolence, subjects reporting",[1]; 4 mg bid,0
same,"nausea, subjects",[1]; 4 mg dose,one subject
same,"Adverse event Headache, subjects reporting",[1]; 20 mg bid,2
same,"Adverse event Nervousness, subjects reporting",[1]; 20 mg bid,1
same,"Adverse event Pain, subjects reporting",[1]; 20 mg bid,2
same,"Adverse event Somnolence, subjects reporting",[1]; 20 mg bid,2
same,"laboratory findings, vital signs or ECG",[1]; during the study,no clinically meaningful findings or dose-related trends
same,Continuous Performance Test Attentiveness,adults with ADHD; 2 mg,0.56±0.27
same,Continuous Performance Test Attentiveness,adults with ADHD; 4 mg,0.68±0.27
same,Continuous Performance Test Attentiveness,adults with ADHD; 20 mg,0.69±0.27
same,information processing speed,adults with ADHD; 20 mg,516.3±12.7
same,Continuous Performance Test number of commission errors,adults with ADHD; all ABT-089 dose levels,statistically significant improvement
same,"measures of attention (reaction time, vigilance), episodic secondary memory, executive function (Stroop Effect) vs placebo",adults with ADHD; in vivo,no meaningful differences
same,"Cavg Mean (±SD), model-predicted, steady state",[2]; 2 mg bid,4.47 (1.05) ng/mL
same,"Ctrough Mean (±SD), model-predicted, steady state",[2]; 2 mg bid,1.85 (0.79) ng/mL
same,"Cavg Mean (±SD), model-predicted, steady state",[2]; 4 mg bid,8.94 (2.09) ng/mL
same,"Ctrough Mean (±SD), model-predicted, steady state",[2]; 4 mg bid,3.69 (1.59) ng/mL
same,"Cavg Mean (±SD), model-predicted, steady state",[2]; 20 mg bid,44.7 (10.46) ng/mL
same,"Ctrough Mean (±SD), model-predicted, steady state",[2]; 20 mg bid,18.46 (7.95) ng/mL
same,plasma levels associated with efficacy,[3],5 to 15 ng/mL
same,agonist activity at NNRs expressed in vitro,[4],weak agonist activity
same,binding to human α4 β2 NNRs,human α4 β2 NNRs,very selectively binds
